Read-outs that look alike come from different tables or passages of the source.
How the values were obtained:
NLRP3 inflammasome = details: limited potency, nonspecific; cited from earlier work
[1] = PK protocol (intravenous and oral administration); assay type: in vivo, male Sprague Dawley rats; details: male, Sprague Dawley, plasma, rat, intravenous; for Vd: read-out: Vdss
Experimental: Pharmacokinetic parameters were determined in male Sprague Dawley rats (Charles River, UK, 250-350 g; or Vital River Laboratory Animal Technology Co Ltd, Beijing, China, 7-9 weeks old). Animals were individually housed during the study and maintained under a 12 h light/dark cycle. Animals had free access to food and water except that some orally dosed animals were food deprived overnight prior to the study. For intravenous administration, compounds were formulated as a solution in water or DMSO:PBS [10:90] in 2 mL/kg dosing volume and administered via tail vein. For oral administration, compounds were formulated as a solution in water or DMSO:water [10:90] in 5 mL/kg dosing volume and administered orally.
Serial blood samples (about 120-300 μL) were taken from each animal at each of 8 time-points post dose (0.083, 0.25, 0.5, 1, 2, 4, 8 and 24 h) or at each of 12 time-points post dose (0.03, 0.1, 0.17, 0.25, 0.5, 1, 2, 4, 6, 8, 12 and 24 h) or pre-dose and at each of 9 time-points post dose (0.25, 0.5, 1, 2, 4, 6, 8, 12 and 24 h). Samples were held on ice for no longer than 30 minutes before centrifugation (10,000 rpm (8,385 g) for 3 minutes; or 5,696 rpm (3,000 g) for 15 minutes) for plasma generation. Plasma was frozen on dry ice prior to bioanalysis. PK parameters were generated from LC-MS/MS data using Dotmatics or Phoenix WinNonlin 6.3 software.

NLRP3 [2] = target: T1, NLRP3 (Homo sapiens, UniProt Q96P20); experiment: THP-1 cells pyroptosis assay; assay type: cell-based; parameters: Seed THP-1 cells (25,000 cells/well) containing 1.0 μg/ml LPS; host or cells: THP-1 cells, LPS-primed, nigericin-stimulated; details: LPS 1 μg/ml, nigericin 5 μM, resazurin read-out
T1 sequence (Q96P20 whole entry): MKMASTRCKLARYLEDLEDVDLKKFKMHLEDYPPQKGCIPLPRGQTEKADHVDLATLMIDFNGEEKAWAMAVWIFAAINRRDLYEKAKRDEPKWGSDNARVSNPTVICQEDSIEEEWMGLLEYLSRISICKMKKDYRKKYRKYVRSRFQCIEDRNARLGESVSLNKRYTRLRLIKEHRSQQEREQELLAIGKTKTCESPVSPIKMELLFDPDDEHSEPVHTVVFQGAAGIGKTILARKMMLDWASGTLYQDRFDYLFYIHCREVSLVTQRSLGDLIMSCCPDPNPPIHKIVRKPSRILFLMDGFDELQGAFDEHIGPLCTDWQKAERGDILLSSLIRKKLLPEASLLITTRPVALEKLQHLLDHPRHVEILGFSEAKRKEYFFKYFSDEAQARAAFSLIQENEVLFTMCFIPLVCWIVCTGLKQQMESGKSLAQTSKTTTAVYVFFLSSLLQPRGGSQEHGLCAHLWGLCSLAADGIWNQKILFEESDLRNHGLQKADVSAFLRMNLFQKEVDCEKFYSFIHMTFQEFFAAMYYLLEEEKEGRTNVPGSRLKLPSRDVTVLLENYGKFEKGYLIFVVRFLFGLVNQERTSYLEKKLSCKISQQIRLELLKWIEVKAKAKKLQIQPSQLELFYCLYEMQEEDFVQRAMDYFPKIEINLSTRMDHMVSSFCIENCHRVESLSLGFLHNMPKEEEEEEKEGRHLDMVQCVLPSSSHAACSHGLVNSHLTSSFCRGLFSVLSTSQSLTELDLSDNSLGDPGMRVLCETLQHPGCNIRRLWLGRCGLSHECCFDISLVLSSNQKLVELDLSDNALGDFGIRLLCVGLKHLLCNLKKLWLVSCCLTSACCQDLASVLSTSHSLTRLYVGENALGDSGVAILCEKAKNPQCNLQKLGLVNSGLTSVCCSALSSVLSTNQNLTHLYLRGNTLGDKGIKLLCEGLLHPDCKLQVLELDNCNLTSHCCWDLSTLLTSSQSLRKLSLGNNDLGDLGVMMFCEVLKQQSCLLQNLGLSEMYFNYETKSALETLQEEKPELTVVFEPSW
Summary of the method: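 THP-1 cells (25,000/well) primed with 1 μg/ml LPS in serum-free RPMI, given compound (8-point half-log, 10 μM top, 0.1% DMSO) for 3 hrs, then nigericin 5 μM for 1 hr at 37° C. Viability of remaining cells read by resazurin (100 μM, 1–2 hrs) fluorescence; IC50 from 4-parameter fit.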

NLRP3 [3] = target: T1, NLRP3; experiment: Human whole blood IL1β release assay; assay type: cell-based; parameters: Plate out 80 μl of whole blood containing 1 μg/ml of LPS; from tissue; host or cells: human whole blood from healthy donors, LPS-primed, nigericin-stimulated; details: LPS 1 μg/ml, nigericin 10 μM, IL-1β AlphaLisa, read-out: HWB IC50
Summary of the method: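 Donor Li-heparin whole blood with 1 μg/ml LPS preincubated 3 h at 37 °C with compound (8-point half-log series, 10 μM top; 0.1% DMSO). Nigericin (10 μM final) added for 1 h, then supernatant IL-1β measured by AlphaLISA. IC50 from 4-parameter variable-slope fit.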

| SMILES | AUC ([1]; dose 1 mg/kg) [µg·h/mL] | clearance ([1]; dose 1 mg/kg) [L/h/kg] | half-life ([1]; dose 1 mg/kg) [h] | Vd ([1]; dose 1 mg/kg) [L/kg] | IC50 (NLRP3 [2]) [µM] | IC50 (NLRP3 [3]) [µM] | AUC ([1]; dose 1.42 mg/kg) [µg·h/mL] | clearance ([1]; dose 1.42 mg/kg) [L/h/kg] | half-life ([1]; dose 1.42 mg/kg) [h] | Vd ([1]; dose 1.42 mg/kg) [L/kg] | NLRP3 inhibition (potency in words) (NLRP3 inflammasome) |
| --- | --- | --- | --- | --- | --- | --- | --- | --- | --- | --- | --- |
| C[S+](C)[O-] [dimethyl sulfoxide (DMSO), dimethyl sulfoxide] | – | – | – | – | – | – | – | – | – | – | weak |
| O=[N+]([O-])C=Cc1ccc2c(c1)OCO2 [3,4-methylenedioxy-β-nitrostyrene] | – | – | – | – | – | – | – | – | – | – | weak |
| CCn1nc(S(=O)(=O)NC(=O)Nc2c3c(cc4c2CCC4)CCC3)cc1C1(O)COC1 [Example 46, 1-Ethyl-N-((1,2,3,5,6,7-hexahydro-s-indacen-4-yl)carbamoyl)-5-(3-hydroxyoxetan-3-yl)-1H-pyrazole-3-sulfonamide] | – | – | – | – | < 0.04 | < 0.4 | 2.38 | 0.6 | 1.6 | 0.56 | – |
| COC1(c2cc(S(=O)(=O)NC(=O)Nc3c4c(cc5c3CCC5)CCC4)nn2C(C)C)COC1 [Example 42, N-((1,2,3,5,6,7-Hexahydro-s-indacen-4-yl)carbamoyl)-1-isopropyl-5-(3-methoxyoxetan-3-yl)-1H-pyrazole-3-sulfonamide] | 2.96 | 0.336 | 0.7 | 0.24 | < 0.04 | < 0.4 | – | – | – | – | – |

The next lines start with results.

| AUC ([1]; dose 1 mg/kg) [µg·h/mL] | clearance ([1]; dose 1 mg/kg) [L/h/kg] | half-life ([1]; dose 1 mg/kg) [h] | Vd ([1]; dose 1 mg/kg) [L/kg] | IC50 (NLRP3 [2]) [µM] | IC50 (NLRP3 [3]) [µM] | AUC ([1]; dose 1.42 mg/kg) [µg·h/mL] | clearance ([1]; dose 1.42 mg/kg) [L/h/kg] | half-life ([1]; dose 1.42 mg/kg) [h] | Vd ([1]; dose 1.42 mg/kg) [L/kg] | SMILES | NLRP3 inhibition (potency in words) (NLRP3 inflammasome) |
| --- | --- | --- | --- | --- | --- | --- | --- | --- | --- | --- | --- |
| 20.1 | 0.048 | 2.6 | 0.12 | 0.04 to 0.16 | < 0.4 | – | – | – | – | CC(O)C(C)n1ccc(S(=O)(=O)NC(=O)Nc2c3c(cc4c2CCC4)CCC3)n1 (racemic) [Example 23, N-((1,2,3,5,6,7-Hexahydro-s-indacen-4-yl)carbamoyl)-1-(3-hydroxybutan-2-yl)-1H-pyrazole-3-sulfonamide] | – |
| 3.68 | 0.27 | 6.7 | 1.57 | 0.04 to 0.16 | 0.8 to 1.6 | – | – | – | – | O=C(Nc1c2c(cc3c1CCC3)CCC2)NS(=O)(=O)c1ccn(CC2CCCO2)n1 (centres unmarked) [Example 3, N-((1,2,3,5,6,7-Hexahydro-s-indacen-4-yl)carbamoyl)-1-((tetrahydrofuran-2-yl)methyl)-1H-pyrazole-3-sulfonamide] | – |

Source: patent publication US12012392B2, “Sulfonamide carboxamide compounds” (Inflazome Limited, priority 2017, dated 2024)
